The values that follow come from PMC10447287, “Optimisation of Pharmaceutical Cocrystal Dissolution Performance through a Synergistic Precipitation Inhibition” (Pharmaceutical Research, 2023).

As a reminder, the solubility is the concentration that dissolves in the medium under given conditions.

The nature of data set [1]: Equilibrium solubility of FFA in DDW and PBS in the absence and presence of a predissolved polymer or a combination. Type of data set: physicochemical. As to the method: The FFA solubility was determined by suspending an excess amount of crystalline materials of FFA I in small vials with 20 mL of a selected dissolution medium (i.e., DDW or PBS pH 4.5) in the absence and presence of a predissolved single polymer and a combination. The detailed polymers and their corresponding concentrations were 0.2 mg/mL of PVP-VA, 1 mg/mL of PEG and 0.2 mg/mL of SLP, which were based on the previous study and the solubility curve obtained in the preliminary study in Figure S5 in the supporting materials. All of the suspensions were kept at 37 ± 0.5°C in a water bath with a shaking rate of 150 rpm for 24 h. Each of the supernatants was separated from excess solids in solution by centrifugation at 13,000 RPM for 1 min in an MSB 010.CX2.5 centrifuge (MSE Ltd., London, U.K.). Subsequently, the supernatant was diluted using ethanol, and the FFA concentration was determined using HPLC. The solid residues retrieved from the tests were dried for 24 h at ambient temperature and then analysed by PXRD. Each of the experiments was conducted in triplicate, and data were reported as an average concentration. Additionally, the FFA solubility in PBS pH 6.8 at 37 ± 0.5°C was also measured in triplicate. The solids were scanned by D2 phaser diffractometer (Bruker U.K. Limited, Coventry, UK) with […] radiation operating at voltage of 30 kV and current of 10 mA. The scanning angle ranged from 2°-40° of 2θ. The scanning time per step was 0.4 s. The scan step size was 0.02° of 2θ.

The nature of data set [2]: Particle size distribution of sieved powders. The format is physicochemical. The following applies: sieved particles < 250 μm. The method, then:
All samples (i.e., FFA, FFA-NIC cocrystal and FFA-TP cocrystal) used in the dissolution tests were slightly ground by a mortar and pestle and sieved by a 60-mesh sieve (below 250 μm) to reduce the influence of particle size on the dissolution rates. The particle size distributions of the test samples were measured using a SYNC Analyzer (MICROTRAC Retsch GmbH, Hann, Germany). The particle size distributions (D10, D50, D90 and mean particle size) of the solid particles were compared. The data were analysed by the Microtrac FLEX software (12.0.0.1).

Data set [3] is described as follows: Ionisation constants of flufenamic acid. The following applies: at pH 4.5. Type of data set: physicochemical.
Data set [4] is described as follows: Dissolution tests of powders in DDW with predissolved polymer or combination (USP type II paddle). The format is physicochemical. As to conditions: for solid residues after dissolution tests (PXRD): DDW in the absence or presence of predissolved polymers; for FFA concentration in solution after 4 h / FFA DPP (dissolution performance parameter): DDW; for FFA concentration in solution after 4 h: no polymer, powder dissolution; for FFA DPP (dissolution performance parameter): 0-4 h, reference same powder in DDW. As to the method: In vitro dissolution tests were performed with a USP type II paddle apparatus (DT 126 light, Erweka GmbH, Germany) at 37 ± 0.5°C with a paddle speed of 50 rpm in 400 mL of DDW in the absence and presence of a predissolved polymer (i.e., 0.2 mg/mL of PVP-VA, 1 mg/mL of PEG, 0.2 mg/mL of SLP) or a combination of two polymers (i.e., 0.2 mg/mL PVP-VA + 1 mg/mL PEG, […]).
71.7 mg of FFA-NIC cocrystal powders with the equivalent of 50 mg FFA I powders were used in each of the dissolution tests. Samples of 1 ± 0.1 mL were withdrawn from the dissolution vessel at the predefined time points of 5, 10, 15, 30, 60, 120, 180 and 240 min. The supernatant of each of the samples was separated from the excess solids by centrifugation at 13,000 RPM for 1 min in an MSE Micro Centaur. HPLC was used to determine the concentrations of FFA and NIC in solution. Solid residues obtained from the experiments were dried at room temperature and analysed by PXRD. All experiments were repeated in triplicate.
For comparison, the above dissolution tests were also repeated using 50 mg of pure FFA I powders and 82.0 mg of FFA-TP cocrystal powders.
DPP was used to evaluate the dissolution profile of the test powders in comparison to a reference system, which is defined as,4 DPP=AUCC(t)-AUCCR(t)/AUCCR(t)×100% where AUCC(t) is the area under the curve (AUC) of a dissolution profile C(t) , indicating the amount of drug dissolved is maintained over the period of the dissolution time from 0 to t, and AUCCR(t) is the AUC of a reference dissolution profile CR(t) .
The solids were scanned by D2 phaser diffractometer (Bruker U.K. Limited, Coventry, UK) with […] radiation operating at voltage of 30 kV and current of 10 mA. The scanning angle ranged from 2°-40° of 2θ. The scanning time per step was 0.4 s. The scan step size was 0.02° of 2θ.

Details of data set [5]: method as in doi:10.1007/s10953-010-9642-6. As to conditions: cited from earlier work.
Where [6] appears, read: predissolved PVP-VA (0.2 mg/mL).
Setting [7] is: predissolved SLP (0.2 mg/mL) + PVP-VA (0.2 mg/mL).

With `O=C(O)c1ccccc1Nc1cccc(C(F)(F)F)c1` [FFA, Flufenamic acid], the solubility at 24 h came out at 20.9 ± 5.35 µg/mL in data set [1] (DDW, 37 °C, aqueous with cosolvent or surfactant or cyclodextrin, thermodynamic from solid, DDW, predissolved PEG (1 mg/mL) + PVP-VA (0.2 mg/mL), 37°C); 119 ± 3.3 µg/mL in data set [1] (DDW, 37 °C, aqueous with cosolvent or surfactant or cyclodextrin, thermodynamic from solid, DDW, predissolved SLP (0.2 mg/mL) + PVP-VA (0.2 mg/mL), 37°C); 17.8 ± 1.72 µg/mL in data set [1] (DDW, 37 °C, aqueous with cosolvent or surfactant or cyclodextrin, thermodynamic from solid, predissolved PEG (1 mg/mL)); 12 ± 1.4 µg/mL in data set [1] (DDW, 37 °C, aqueous with cosolvent or surfactant or cyclodextrin, thermodynamic from solid, predissolved PVP-VA (0.2 mg/mL)); 10.1 ± 0.79 µg/mL in data set [1] (DDW, absence of polymer, 37°C); 111 ± 16.2 µg/mL in data set [1] (DDW, predissolved SLP (0.2 mg/mL), 37°C). Further, the solubility at 24 h in data set [1] (PBS pH 4.5, 37 °C, pH 4.5, aqueous buffer, thermodynamic from solid, PBS pH 4.5, absence of polymer, 37°C) stood at 18.3 ± 2.39 µg/mL; in data set [1] (PBS pH 4.5, 37 °C, pH 4.5, aqueous with cosolvent or surfactant or cyclodextrin, thermodynamic from solid, PBS pH 4.5, predissolved PEG (1 mg/mL) + PVP-VA (0.2 mg/mL), 37°C), 11.4 ± 0.22 µg/mL; in data set [1] (PBS pH 4.5, 37 °C, pH 4.5, aqueous with cosolvent or surfactant or cyclodextrin, thermodynamic from solid, PBS pH 4.5, predissolved PVP-VA (0.2 mg/mL), 37°C), 11 ± 1.32 µg/mL; in data set [1] (PBS pH 4.5, 37 °C, pH 4.5, aqueous with cosolvent or surfactant or cyclodextrin, thermodynamic from solid, PBS pH 4.5, predissolved SLP (0.2 mg/mL) + PVP-VA (0.2 mg/mL), 37°C), 41.1 ± 4.2 µg/mL; in data set [1] (PBS pH 4.5, 37 °C, pH 4.5, aqueous with cosolvent or surfactant or cyclodextrin, thermodynamic from solid, PBS pH 4.5, predissolved SLP (0.2 mg/mL), 37°C), 41.9 ± 2.5 µg/mL; in data set [1] (PBS pH 4.5, pH 4.5, PBS pH 4.5, predissolved PEG (1 mg/mL), 37°C), 9.01 ± 0.26 µg/mL. For the same compound, the solubility in data set [1] (PBS pH 6.8, 37 °C, pH 6.8, aqueous buffer, thermodynamic from solid, PBS pH 6.8, absence of polymer, 37°C) was found to be 741.1 ± 6.27 µg/mL. In addition, the “solid form of residues after solubility tests (PXRD)” value in data set [1] (after 24 h in various media) is given as “remained the form I”. In data set [2], this compound showed a D10 of 5.19 μm. This compound also had a D50 in data set [2] of 13.58 μm. For the same compound, the D90 in data set [2] stood at 84.86 μm. The compound further gave a Mean particle size in data set [2] of 31.71 μm. Besides, the “fraction in the neutral form” value in data set [3] is given as “more than 75%”. Also, in data set [4], the “solid residues after dissolution tests (PXRD)” value was “no phase transformation”. For the same compound, the “FFA concentration in solution after 4 h” value in data set [4] was determined as 4.99 µg/mL. Moreover, the “FFA DPP (dissolution performance parameter)” value (“FFA DPP” for short) in data set [4] (setting [6]) is -24%; in data set [4] (setting [7]), 50%; in data set [4] (predissolved SLP (0.2 mg/mL)) it was 30%. Moreover, the “isoelectric point pH” value in data set [5] is 3.88 ± 0.03. The “pKa1 (basic group)” value in data set [5] is on record as 2.92 ± 0.01. Also, the “pKa2 (acidic group)” value in data set [5] is reported as 4.84 ± 0.04.
In data set [2], `Cn1c(=O)c2[nH]cnc2n(C)c1=O.O=C(O)c1ccccc1Nc1cccc(C(F)(F)F)c1` [FFA-TP cocrystal] yielded a D10 of 5.25 μm, a D50 of 12.32 μm, a D90 of 56.64 μm and a Mean particle size of 23.92 μm. For the same compound, in data set [4], the “solid residues after dissolution tests (PXRD)” value is “the same as the starting materials” and the “FFA concentration in solution after 4 h” value was 8.35 µg/mL. The “FFA DPP” value in data set [4] (predissolved PEG (1 mg/mL) + PVP-VA (0.2 mg/mL)) is reported as 12%. Also, the “FFA DPP” value in data set [4] (predissolved PEG (1 mg/mL)) amounted to 24%. Further, the “FFA DPP” value in data set [4] (setting [6]) is given as -17%. Moreover, in data set [4] (setting [7]), the “FFA DPP” value worked out at 23%. In data set [4] (predissolved SLP (0.2 mg/mL)), the “FFA DPP” value amounted to 3%.
